# Measurements reported in publication PMC12504763, “Antiproliferation, 3D-multicellular spheroid and VEGFR-2 inhibitory properties of spiroindolin-2-ones with phosphonate function” (Scientific Reports, 2025).
# “And” between values parts separate entries of the source, which are not always exact repeats. Identical values can stand only once. Like-named read-outs stand apart in the source and are kept apart here.
# What was measured:
# [1] = tested on: HCT116 (colon) cancer cell line; experiment: 2D-monolayer antiproliferation (MTT) against HCT116; type: cell-based, human; settings: for IC50: Homo sapiens, HCT-116; for SI (selectivity index) HCT116: IC50 of RPE1 normal cell/IC50 of HCT116
# [2] = tested on: PaCa2 (pancreatic) cancer cell line; experiment: 2D-monolayer antiproliferation (MTT) against PaCa2; type: cell-based, human; settings: for 1/(observed property): 1/observed IC50 (μM), PaCa2; for IC50: Homo sapiens, PaCa-2, MTT, 72 h incubation, PaCa2 pancreatic, read-out: IC50, μM ± SEM PaCa2; for SI (selectivity index) PaCa2: IC50 of RPE1 normal cell/IC50 of PaCa2
# [3] = tested on: MCF7 (breast) cancer cell line; experiment: 2D-monolayer antiproliferation (MTT) against MCF7; type: cell-based, human; settings: for IC50: Homo sapiens, MTT, 72 h incubation, MCF7 breast, read-out: IC50, μM ± SEM MCF7; for SI (selectivity index) MCF7: IC50 of RPE1 normal cell/IC50 of MCF7
# [4] = tested on: A549 (lung) cancer cell line; experiment: 2D-monolayer antiproliferation (MTT) against A549; type: cell-based, human; settings: for IC50: Homo sapiens, MTT, 72 h incubation, A549 lung, read-out: IC50, μM ± SEM A549; for SI (selectivity index) A549: IC50 of RPE1 normal cell/IC50 of A549
# [5] = tested on: RPE1 (normal human immortalized retinal pigment epithelial cell line); experiment: cells; type: cell-based; settings: Homo sapiens, RPE-1; MTT, normal RPE1 cell; read-out: IC50, μM ± SEM RPE1
# [6] = biological target: T1, VEGFR-2 (Homo sapiens, UniProt P35968); experiment: cell-based; type: cell-based; settings: for inhibition at 10 µM: HCT-116, HCT116; for VEGFR-2 pg/mL ± SEM HCT116: at 10 μM, control 317.80 ± 3.5
# T1 construct: endogenous in cells; host or cells: HCT116, PaCa2, MCF7 (human cancer cell lines, ATCC origin)
# [7] = biological target: T1, VEGFR-2; experiment: cell-based; type: cell-based; settings: for inhibition at 10 µM: PaCa-2, PaCa2; for VEGFR-2 pg/mL ± SEM PaCa2: at 10 μM, control 326.80 ± 1.9
# [8] = biological target: T1, VEGFR-2; experiment: cell-based; type: cell-based; settings: for inhibition at 10 µM: MCF7; for VEGFR-2 pg/mL ± SEM MCF7: at 10 μM, control 258.70 ± 2.3
# [9] = biological target: T2, COX-1 (Ovis aries, UniProt P05979); experiment: biochemical; settings: 3 replicates, read-out: % Inhibition of COX-1 ± SEM
# T2 construct: purchased BioVision incorporated USA K548–100
# T2 sequence (P05979 25-600): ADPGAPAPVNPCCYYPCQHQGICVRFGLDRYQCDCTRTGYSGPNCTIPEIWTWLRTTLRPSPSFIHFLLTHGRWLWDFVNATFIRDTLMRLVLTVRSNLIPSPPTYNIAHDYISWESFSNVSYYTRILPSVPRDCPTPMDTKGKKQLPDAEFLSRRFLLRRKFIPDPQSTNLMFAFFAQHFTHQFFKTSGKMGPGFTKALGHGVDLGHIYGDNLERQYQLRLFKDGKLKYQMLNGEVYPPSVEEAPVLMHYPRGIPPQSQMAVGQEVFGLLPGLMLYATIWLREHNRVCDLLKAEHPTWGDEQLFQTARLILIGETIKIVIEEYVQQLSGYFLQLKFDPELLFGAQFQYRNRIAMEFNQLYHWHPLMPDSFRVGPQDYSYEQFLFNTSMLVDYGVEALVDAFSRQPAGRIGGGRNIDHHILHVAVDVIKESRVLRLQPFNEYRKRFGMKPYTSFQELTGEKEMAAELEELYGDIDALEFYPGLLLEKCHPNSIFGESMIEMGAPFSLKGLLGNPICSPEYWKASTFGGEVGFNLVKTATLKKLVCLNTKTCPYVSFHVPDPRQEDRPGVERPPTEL
# [10] = biological target: T3, COX-2 (Homo sapiens, UniProt P35354); experiment: biochemical; settings: for inhibition at 10 µM: 3 replicates, read-out: % Inhibition of COX-2 ± SEM; for SI (selectivity index, COX-2/COX-1): at 10 μM
# T3 construct: purchased BioVision incorporated USA K548–100
# T3 sequence (P35354 18-604): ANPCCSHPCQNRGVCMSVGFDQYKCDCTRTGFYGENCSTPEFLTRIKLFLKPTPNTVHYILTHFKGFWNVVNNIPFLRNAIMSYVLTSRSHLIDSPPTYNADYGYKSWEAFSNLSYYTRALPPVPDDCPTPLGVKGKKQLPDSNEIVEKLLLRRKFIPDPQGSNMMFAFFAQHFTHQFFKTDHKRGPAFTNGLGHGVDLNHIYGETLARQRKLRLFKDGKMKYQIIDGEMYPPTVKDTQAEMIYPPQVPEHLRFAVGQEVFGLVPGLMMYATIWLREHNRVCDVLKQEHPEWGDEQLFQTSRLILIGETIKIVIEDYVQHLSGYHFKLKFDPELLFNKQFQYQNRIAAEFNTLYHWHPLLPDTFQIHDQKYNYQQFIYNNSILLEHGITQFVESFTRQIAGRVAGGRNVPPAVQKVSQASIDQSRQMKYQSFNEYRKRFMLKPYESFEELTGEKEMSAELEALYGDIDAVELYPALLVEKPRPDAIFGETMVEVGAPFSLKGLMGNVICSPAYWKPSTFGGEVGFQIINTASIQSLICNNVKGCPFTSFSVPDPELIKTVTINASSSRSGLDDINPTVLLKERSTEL
# [11] = tested on: TNF-α; experiment: TNF-α inhibitory properties (ELISA), HCT116 cell lysate; type: cell-based, human; settings: at 10 μM; for TNF-α pg/mL (± SEM) HCT116: control 95.74 ± 0.5
# [12] = tested on: TNF-α; experiment: TNF-α inhibitory properties (ELISA), PaCa2 cell lysate; type: cell-based, human; settings: at 10 μM; for TNF-α pg/mL (± SEM) PaCa2: control 111.8 ± 2.0
# [13] = tested on: TNF-α; experiment: TNF-α inhibitory properties (ELISA), MCF7 cell lysate; type: cell-based, human; settings: at 10 μM; for TNF-α pg/mL (± SEM) MCF7: control 83.26 ± 1.1
# [14] = tested on: HCT116 3D-spheroid; settings: HCT116 3D-spheroid at 50 μM, relative to control
# [15] = tested on: CAM blood vessel network; experiment: Chick chorioallantoic membrane (CAM) anti-angiogenic assay; type: in vivo, chicken; settings: CAM test, 20 μL of 660 μM, 3 days; control 459.7 ± 13.8
# Procedure: CAM assay is an established xenograft technique for investigating the angiogenic effect due to the high resemblance of the human vascularized epithelium basement membrane with that of the chorioallantoic layer containing mainly type IV collagen[84]–[86].
# Fig. 10 Images of light microscopy for anti-angiogenic evaluation of the tested compounds using CAM assay. […] The glass slide was placed on the surface of the CAM blood vessel network and left in an incubator at 37 °C for 3 days. The CAM blood vessel network was carefully cut and imaged under a light microscope (40 × magnification).
# Fertilized white chicken eggs were incubated in a 37 °C incubator with constant humidity. On day 8, a small squared window was opened allowing the detachment of the growing CAM and shell. The opening was covered with an elastic bandage. […] The CAM was then sealed with a bandage and placed back in the incubator. CAMs were examined daily until day 12 (3 days), the vascularized membranes were then cut around the glass slide and fixed in 5% formalin. Images were taken with an Evos microscope at 40x and 100x magnification^9. Main blood vessel in the microscopic images of controls and samples were quantified by imageJ and analyzed for significant differences (n = 4).
# [16] = MTT, 72 h incubation, HCT116 colon, read-out: IC50, μM ± SEM HCT116
# [17] = log of observed IC50 (μM), HCT116, read-out: Log(observed property) (converted)
# T1 sequence (P35968 20-1356): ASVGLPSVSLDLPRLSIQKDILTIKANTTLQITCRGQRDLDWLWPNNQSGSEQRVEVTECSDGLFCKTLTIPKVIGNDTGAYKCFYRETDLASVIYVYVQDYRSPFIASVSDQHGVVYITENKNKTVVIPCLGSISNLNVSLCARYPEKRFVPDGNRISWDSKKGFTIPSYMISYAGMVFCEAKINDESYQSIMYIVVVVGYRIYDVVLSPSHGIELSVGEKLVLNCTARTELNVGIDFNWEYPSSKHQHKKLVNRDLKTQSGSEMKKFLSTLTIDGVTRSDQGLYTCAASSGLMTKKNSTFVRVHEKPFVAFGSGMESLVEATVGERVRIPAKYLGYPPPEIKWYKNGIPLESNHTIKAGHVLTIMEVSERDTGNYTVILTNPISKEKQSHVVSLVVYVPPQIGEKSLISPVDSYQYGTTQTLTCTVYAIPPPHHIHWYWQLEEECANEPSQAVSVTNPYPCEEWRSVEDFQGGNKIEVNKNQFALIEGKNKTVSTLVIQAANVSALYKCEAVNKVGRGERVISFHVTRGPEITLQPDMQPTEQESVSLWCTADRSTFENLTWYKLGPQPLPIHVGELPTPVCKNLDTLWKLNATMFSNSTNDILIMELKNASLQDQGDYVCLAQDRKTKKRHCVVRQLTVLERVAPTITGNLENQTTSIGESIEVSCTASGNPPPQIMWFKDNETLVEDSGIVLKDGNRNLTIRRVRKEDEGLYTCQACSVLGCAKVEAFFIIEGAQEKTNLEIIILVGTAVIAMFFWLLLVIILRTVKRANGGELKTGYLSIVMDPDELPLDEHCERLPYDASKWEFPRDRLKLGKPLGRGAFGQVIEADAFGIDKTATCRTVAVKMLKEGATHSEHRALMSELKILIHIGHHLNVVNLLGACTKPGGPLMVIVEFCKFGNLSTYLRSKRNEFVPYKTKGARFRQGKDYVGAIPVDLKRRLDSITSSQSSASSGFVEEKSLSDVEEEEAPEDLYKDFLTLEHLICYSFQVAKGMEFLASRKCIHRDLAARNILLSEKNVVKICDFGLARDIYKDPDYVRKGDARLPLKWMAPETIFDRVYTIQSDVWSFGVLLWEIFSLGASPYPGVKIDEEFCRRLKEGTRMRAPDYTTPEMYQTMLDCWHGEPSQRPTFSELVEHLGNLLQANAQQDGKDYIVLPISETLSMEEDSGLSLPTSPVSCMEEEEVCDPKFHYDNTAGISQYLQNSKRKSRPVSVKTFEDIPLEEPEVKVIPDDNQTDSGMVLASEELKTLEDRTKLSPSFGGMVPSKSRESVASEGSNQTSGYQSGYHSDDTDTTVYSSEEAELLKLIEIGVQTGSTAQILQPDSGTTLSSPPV
SMILES,"IC50 [1, 16]","IC50 [1, 17]",SI (selectivity index) HCT116 [1],1/(observed property) [2],IC50 [2],SI (selectivity index) PaCa2 [2],IC50 [3],SI (selectivity index) MCF7 [3],IC50 [4],SI (selectivity index) A549 [4],IC50 [5],inhibition at 10 µM [6],VEGFR-2 pg/mL ± SEM HCT116 [6],inhibition at 10 µM [7],VEGFR-2 pg/mL ± SEM PaCa2 [7],inhibition at 10 µM [8],VEGFR-2 pg/mL ± SEM MCF7 [8],inhibition at 10 µM [9],inhibition at 10 µM [10],TNF-α pg/mL (± SEM) HCT116 [11],other results
"CCOP(=O)(OCC)N1C/C(=C\c2ccccc2)C(=O)C2(C1)C(c1ccccc1)CN(C)C21C(=O)Nc2ccc(C)cc21 (stereo not drawn) [Compound 17d, Diethyl (E)-(5′′-benzylidene-1′,5-dimethyl-2,4′′-dioxo-4′-phenyldispiro[indoline-3,2′-pyrrolidine-3′,3′′-piperidin]-1′′-yl)phosphonate]",9.278 ± 0.084 µM,9.28 µM,1.9,0.06423,15.6 ± 0.329 µM,1.2,5.78 ± 0.13 µM,3.1,14.6 ± 0.27 µM,1.2,17.9 ± 0.945 µM,72.5%,87.40 ± 1.9 pg/mL,83.7%,53.42 ± 0.7 pg/mL,71.9%,72.80 ± 1.2 pg/mL,51.8 ± 2.2%,56.4 ± 1.9%,94.80 ± 2.5 pg/mL,"SI (selectivity index, COX-2/COX-1) [10]: 0.82; TNF-α % inhibition HCT116 [11]: 1.0%; TNF-α % inhibition PaCa2 [12]: 7.2%; TNF-α pg/mL (± SEM) PaCa2 [12]: 103.7 ± 4.2 pg/mL; TNF-α % inhibition MCF7 [13]: 0.1%; TNF-α pg/mL (± SEM) MCF7 [13]: 83.2 ± 4.5 pg/mL; %CT (± SEM), percentage cytotoxicity [14]: 64.1% and 64.1 ± 7.0%"
"CCOP(=O)(OCC)N1C/C(=C\c2ccc(Cl)cc2)C(=O)C2(C1)C(c1ccc(Cl)cc1)CN(C)C21C(=O)Nc2ccc(C)cc21 (stereo not drawn) [Compound 17k, Diethyl (E)-(5′′-(4-chlorobenzylidene)-4′-(4-chlorophenyl)-1′,5-dimethyl-2,4′′-dioxodispiro[indoline-3,2′-pyrrolidine-3′,3′′-piperidin]-1′′-yl)phosphonate]",3.281 ± 0.022 µM,3.28 µM,2.5,0.1502,6.66 ± 0.095 µM,1.2,4.98 ± 0.095 µM,1.6,6.47 ± 0.385 µM,1.3,8.15 ± 0.507 µM,78.7%,67.80 ± 1.3 pg/mL,76.6%,76.40 ± 0.9 pg/mL,66.6%,86.40 ± 0.5 pg/mL,57.7 ± 1%,55 ± 1.6%,26.48 ± 1.5 pg/mL,"TNF-α pg/mL (± SEM) PaCa2 [12]: 24.3 ± 1.4 pg/mL; TNF-α % inhibition MCF7 [13]: 72.6%; TNF-α pg/mL (± SEM) MCF7 [13]: 22.85 ± 1.8 pg/mL; %CT (± SEM), percentage cytotoxicity [14]: 53.1% and 53.1 ± 2.2%"
"CCOP(=O)(OCC)N1C/C(=C\c2ccc(C)cc2)C(=O)C2(C1)C(c1ccc(C)cc1)CN(C)C21C(=O)Nc2ccccc21 (stereo not drawn) [Compound 17m, Diethyl (E)-[1′-methyl-5′′-(4-methylbenzylidene)-2,4′′-dioxo-4′-(p-tolyl)dispiro[indoline-3,2′-pyrrolidine-3′,3′′-piperidin]-1′′-yl]phosphonate]",3.44 ± 0.083 µM,3.44 µM,2.8,0.1784,5.61 ± 0.063 µM,1.7,4.21 ± 0.085 µM,2.3,8.18 ± 0.435 µM,1.2,9.57 ± 0.537 µM,86%,44.50 ± 0.5 pg/mL,92.2%,25.36 ± 1.0 pg/mL,83.5%,42.80 ± 0.4 pg/mL,58.3 ± 3%,60.9 ± 1.1%,21.65 ± 0.9 pg/mL,"SI (selectivity index, COX-2/COX-1) [10]: 0.93; TNF-α % inhibition HCT116 [11]: 77.4%; TNF-α % inhibition PaCa2 [12]: 70.6%; TNF-α pg/mL (± SEM) PaCa2 [12]: 32.83 ± 1.3 pg/mL; TNF-α % inhibition MCF7 [13]: 68.5%; TNF-α pg/mL (± SEM) MCF7 [13]: 26.24 ± 2.2 pg/mL; Diameter of blood vessel (μm ± SEM) [15]: 85.7 ± 2.6 μm"
